The values that follow come from ChEMBL document CHEMBL1268939, “Synthesis and evaluation of bivalent, peptidomimetic antagonists of the αvβ3 integrins” (Bioorg Med Chem Lett, 2010).

In general, IC50 refers to the point on the concentration scale where inhibition reaches its midpoint. Read a high IC50 as weaker potency in that assay.

The target in this experiment is Integrin alpha-V/beta-3 (Homo sapiens, UniProt P05106+P06756). Description: Inhibition of biotinylated vitronectin binding to human alphaVbeta3 integrin after 3 hrs by ELISA. Type of experiment: protein-complex assay.
Chain of Integrin alpha-V/beta-3 (P05106 27-788 limits assumed): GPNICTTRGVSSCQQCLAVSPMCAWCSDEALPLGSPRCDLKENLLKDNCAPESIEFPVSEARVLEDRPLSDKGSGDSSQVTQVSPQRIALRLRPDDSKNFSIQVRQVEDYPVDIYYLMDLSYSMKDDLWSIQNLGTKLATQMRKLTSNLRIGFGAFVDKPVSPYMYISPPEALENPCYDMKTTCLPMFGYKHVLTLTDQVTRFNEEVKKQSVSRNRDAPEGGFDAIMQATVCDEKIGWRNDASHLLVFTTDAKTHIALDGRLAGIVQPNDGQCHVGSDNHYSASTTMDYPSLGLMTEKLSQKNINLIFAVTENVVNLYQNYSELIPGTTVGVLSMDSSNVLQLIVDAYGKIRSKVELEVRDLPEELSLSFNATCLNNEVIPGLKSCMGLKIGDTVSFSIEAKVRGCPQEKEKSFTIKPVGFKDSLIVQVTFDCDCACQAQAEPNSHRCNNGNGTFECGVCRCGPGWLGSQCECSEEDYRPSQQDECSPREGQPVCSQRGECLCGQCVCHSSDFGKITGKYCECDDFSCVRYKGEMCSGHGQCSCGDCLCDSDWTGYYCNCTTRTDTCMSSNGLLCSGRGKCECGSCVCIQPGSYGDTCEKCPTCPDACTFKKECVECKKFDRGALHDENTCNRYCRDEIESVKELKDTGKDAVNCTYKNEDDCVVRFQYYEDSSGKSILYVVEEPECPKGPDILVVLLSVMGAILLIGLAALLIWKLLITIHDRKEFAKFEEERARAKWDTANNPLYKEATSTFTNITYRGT
Chain of Integrin alpha-V/beta-3 (P06756 31-889 limits assumed): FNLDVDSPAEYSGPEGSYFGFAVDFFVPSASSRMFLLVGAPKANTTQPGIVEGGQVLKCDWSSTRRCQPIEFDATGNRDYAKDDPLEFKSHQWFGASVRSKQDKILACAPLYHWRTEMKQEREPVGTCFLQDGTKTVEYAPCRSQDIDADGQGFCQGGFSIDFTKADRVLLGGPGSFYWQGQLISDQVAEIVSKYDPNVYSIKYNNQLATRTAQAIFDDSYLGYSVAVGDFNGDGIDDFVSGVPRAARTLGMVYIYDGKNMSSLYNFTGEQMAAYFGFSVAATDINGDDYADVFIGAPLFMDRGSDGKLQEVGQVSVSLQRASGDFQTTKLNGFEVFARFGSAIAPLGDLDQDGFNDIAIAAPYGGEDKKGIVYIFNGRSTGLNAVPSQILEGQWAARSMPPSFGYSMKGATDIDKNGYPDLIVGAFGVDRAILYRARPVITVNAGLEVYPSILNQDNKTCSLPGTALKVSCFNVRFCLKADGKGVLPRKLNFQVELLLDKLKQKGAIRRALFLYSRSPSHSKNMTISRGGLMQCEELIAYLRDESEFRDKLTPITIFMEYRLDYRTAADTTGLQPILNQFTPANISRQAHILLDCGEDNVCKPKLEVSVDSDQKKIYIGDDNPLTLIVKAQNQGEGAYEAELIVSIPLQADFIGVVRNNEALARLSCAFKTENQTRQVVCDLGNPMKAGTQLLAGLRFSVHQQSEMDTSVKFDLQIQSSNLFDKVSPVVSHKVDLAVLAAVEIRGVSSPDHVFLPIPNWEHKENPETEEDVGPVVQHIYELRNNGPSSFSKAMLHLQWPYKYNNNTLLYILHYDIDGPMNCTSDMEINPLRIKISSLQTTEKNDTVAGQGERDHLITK
Chain of Integrin alpha-V/beta-3 (P06756 891-1048 limits assumed): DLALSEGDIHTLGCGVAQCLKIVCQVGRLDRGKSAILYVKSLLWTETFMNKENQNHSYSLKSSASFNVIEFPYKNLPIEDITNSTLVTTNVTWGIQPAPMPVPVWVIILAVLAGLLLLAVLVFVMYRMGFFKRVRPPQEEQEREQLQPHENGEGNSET
The compound `CC(C)(CNC(=O)OCCOCCOCCOCCOCCOCCOCCOCCOC(=O)NCC(C)(C)COC(=O)NCCS(=O)(=O)N[C@@H](CNC(=O)c1ccc(OCCN=C2NCCCN2)cc1)C(=O)O)COC(=O)NCCS(=O)(=O)N[C@@H](CNC(=O)c1ccc(OCCN=C2NCCCN2)cc1)C(=O)O` showed an IC50 of 0.32 nM. With `NCCS(=O)(=O)N[C@@H](CNC(=O)c1ccc(OCCNC2=NCCCN2)cc1)C(=O)O` the figure was 22.3 nM; with `CC(C)(CN)COC(=O)NCCS(=O)(=O)N[C@@H](CNC(=O)c1ccc(OCCNC2=NCCCN2)cc1)C(=O)O`, 2.07 nM.
